Laboratory results from patent US20170354670A1, “PRODUCT COMPRISING GLUCOSAMINE FOR EXTERNAL APPLICATION” (Vital Medicine, LLC, priority 2016, published 2017).

Tested on: foot complaints (tired, achy, sore)
Test: Foot bath study of foot pain (100 mm visual analogue scale) versus sucrose sham
Type: in vivo, human
Source text: Subjects: Normal healthy adults aged 40-75 with daily reported foot complaints (tired, achy, sore) that are not currently taking prescription or over the counter products for symptom relief. An attempt is made to recruit equal numbers of male and female participants. Sample Size: 40 subjects; 20 per group Treatment groups: Soothing foot bath topical fluid application apparatus (Glucosamine KCl), group A; Sham: Sucrose foot bath topical fluid application apparatus, group B. Methods: Recruitment—Questionnaire evaluating health status and foot complaints; including visual analogue scale evaluation of current pain state. Baseline—Questionnaire evaluating health status and foot complaints; including visual analogue scale evaluation of current pain state. Treatment—Subjects are randomly assigned to one of two treatment groups and asked to submerge their right foot in a plastic box that contains 3 liters of room temperature tap water and 2 liters of boiling water plus one packet (50 grams) of the labeled “treatment pack” and stirred until in solution. Label is removed from pack and placed on chart. Foot remains submerged and stopwatch set for 1 hour. At the end of 1 hour, subject foot is dried and subject is asked to mark on the line (100 mm) the current state of their foot pain upon standing. […]

In the case of `N[C@H]1C(O)OC(CO)[C@@H](O)[C@@H]1O` (stereo partly drawn) [glucosamine, (3R,4R,5S)-3-Amino-6-(hydroxymethyl)oxane-2,4,5-triol], the “pain relief compared with sucrose sham, duration” value (72 hours after treatment, single 1 hour foot bath, 50 grams in 5 liters water, many subjects) is reported as “greater pain relief” and the “pain relief compared with sucrose sham (group B)” value (healthy adults aged 40-75 with daily foot complaints, right foot submerged 1 hour in 5 liters water with 50 grams treatment pack, visual analogue scale) is reported as “sufficiently better pain relief”.
